Experimental data taken from patent publication US4910225A, “Locally administrable therapeutic composition for inflammatory disease” (Senju Pharmaceutical Co., Ltd., priority 1988, dated 1990).

Experiments:
[1] = test system: experimental ophthalmitis induced by bovine serum albumin in white rabbits (ophthalmitis I); assay: Ophthalmitis I: protein, white blood cell count and prostaglandins in anterior chamber aqueous humor; assay type: in vivo; settings: for Prostaglandin in anterior chamber aqueous humor: less than the assay limit; for Protein in anterior chamber aqueous humor / White Blood Cell count in anterior chamber aqueous humor: mean ± SE
Description: (§1) Seventeen male white rabbits weighing about 2 kg were used. They were fed with 80 g of Labo RG-RO (Nippon Agricultural Co., Ltd.) daily and had free access to tap water.
(§2) After 28 days when ophthalmitis I had nearly recovered, 2.5% BSA solution was administered in a dose of 25 mg/ml/kg into the auricular vein to cause ophthalmitis (ophthalmitis II). The severity of ophthalmitis was rated according to the rating scale^(1) of Yamauchi et al., based on the Draize method in which an increased weight given to the internal segment of the eye. Observation was made with a frequency of once in one or two days during the peak period of inflammation and once in three or four days before and after the peak period for ophthalmitis I and 3, 6, 12 and 24 hours after intravenous injection of BSA for ophthalmitis II.
(§3) Gross observation was made on the day after injection of BSA into the vitreous body and with the animals arranged in the decreasing order of severity of ocular inflammation, grouping was carried out in such a manner that the intensity distribution would be uniform over the groups. Thus, a physiological saline group of 7 animals, a 0.1% Compound [I] instillation group of 4 animals and a 0.5% Compound [I] instillation group of 5 animals were provided. After this grouping procedure, the test drugs and saline were respectively instilled into both eyes of the rabbits, 50 μl per dose, 4 times a day. For induction of ophthalmitis II, each drug was instilled into both eyes, 50 μl per dose, immediately after injection of BSA into the auricular vein and at 1-hour intervals thereafter, for a total of 14 times.

[2] = test system: experimental ophthalmitis induced by bovine serum albumin in white rabbits (ophthalmitis II); assay: Anti-inflammatory effect in ophthalmitis II (intravenous bovine serum albumin relapse), gross severity scores; assay type: in vivo; settings: for Anterior chamber opacity, degree of inhibition relative to physiological saline group / Balbar conjunctival injection, degree of inhibition relative to physiological saline group / Corneal opacity, degree of inhibition relative to physiological saline group / Discharge, degree of inhibition relative to physiological saline group / External + Internal Grand Total Score, degree of inhibition relative to physiological saline group / External Segment Total Score, degree of inhibition relative to physiological saline group / Internal Segment Total Score, degree of inhibition relative to physiological saline group / Iridic injection, degree of inhibition relative to physiological saline group / Morphological change of iris, degree of inhibition relative to physiological saline group / Palpebral conjunctival edema, degree of inhibition relative to physiological saline group / Palpebral conjunctival injection, degree of inhibition relative to physiological saline group: ophthalmitis II; for Anterior chamber opacity score (Internal Segment) / Balbar conjunctival injection score (External Segment) / Corneal opacity score (External Segment) / Discharge score (External Segment) / External + Internal Grand Total Score / External Segment Total Score / Internal Segment Total Score / Iridic injection score (Internal Segment) / Morphological change of iris score (Internal Segment) / Palpebral conjunctival edema score (External Segment) / Palpebral conjunctival injection score (External Segment): ophthalmitis II, 3, 6, 12 and 24 hours after intravenous BSA, mean ± SE
Description: as §1, §2
^(1) Hideyasu Yamauchi, Makoto Ingu, Tadashi Iso and Kozo Uda: Anti-inflammatory effect of fluorometholone ophthalmic solution in experimental uveitis in rabbits, Folia Ophthalmologica Japonica, 24: 969-79 (1973).
as §3

[3] = test system: experimental ophthalmitis induced by bovine serum albumin in white rabbits (ophthalmitis II); assay: Ophthalmitis II: protein, white blood cell count and prostaglandins in anterior chamber aqueous humor; assay type: in vivo; settings: for Prostaglandin in anterior chamber aqueous humor: less than the assay limit; for White Blood Cell count in anterior chamber aqueous humor: mean ± SE
Description: as §1, §2, §3

[4] = test system: carrageenin edema in rats; assay: Carrageenin edema of the conjunctiva in rats; assay type: in vivo; settings: 4 hours after carrageenin; for Weight of Edema: mean ± SE for 10 eyes
Description: 1. Sodium 3-(4-bromobenzoyl)-2-aminophenyl-acetate (hereinafter referred to as Compound [I])
2. Sodium 3-(4-chlorobenzoyl)-2-aminophenyl-acetate (hereinafter referred to as Compound [II])
3. Sodium 3-benzoyl-2-aminophenylacetate (hereinafter referred to as Compound [III])
Using female Wister rates weighing 100 g in groups of 5 animals or 10 eyes, 0.05 ml of 1% carrageenin (dissolved in physiological saline at 50° C.) as a phlogogen was injected beneath the conjuctiva of both eyes to induce edema. Physiological saline, as a control, and test drugs were respectively instilled into both eyes 40 and 20 minutes before and immediately after the injection of carrageenin, in the amount of 2.5 μl per dose. Four hours after the phlogogen treatment, each animal was sacrificed by cervical dislocation and in accordance with the method of Maistrello et al.^(2), the scalp was peeled off toward the eyelid and the edematous portion together with the skin was removed along the lid margin and weighed.
^(2) Maistrello et al.: Quantitative Effect of Topically Applied Anti-inflammatory Agents on External Ocular Inflammation in Rats: Journal of Pharmaceutical Science, volume 62, pp. 1455-60(1973).

[5] = test system: atropine-resistant miosis; assay: Atropine-resistant miosis after paracentesis; assay type: in vivo, albino rabbits; settings: for Miosis: 10 min after paracentesis
Description: The solutions of the following formulas were used.
Totally 28 male albino rabbits (4 rabbits×7 groups) with a body weight of about 2 kg werr used. They had been confirmed, before the experiment, to have mydriatic response to 1% atropine for at least 4 hours.
50 μl each of 1% atropine solution was instilled into both eyes of the animals one hour before the 1st paracenthesis, in which approx. 0.2 ml/eye of aqueous humor (primary aqueous humor) was collected. Topical application of 50 μl each of the test drug solutions was conducted 30 min before the paracenthesis. Pupil diameter of each eye was measured with a slide caliper immediately before and 10 min after the paracenthesis. The 2nd paracenthesis was conducted 90 min after the 1st one, in which approx. 0.2 ml/eye of aqueous humor (secondary aqueous humor) was collected.

[6] = Stability with polyvinyl pyrrolidone and sodium sulfite (Experimental Example 6); assay type: physicochemical; settings: solution in which polyvinyl pyrrolidone and sodium sulfite coexist
[7] = pH and osmolarity of ophthalmic solutions; assay type: physicochemical

Nc1c(CC(=O)[O-])cccc1C(=O)c1ccc(Br)cc1.O.[Na+] [Compound [I], Sodium 3-(4-bromobenzoyl)-2-aminophenylacetate monohydrate]
Inhibition of prostaglandins in the aqueous humor ([1]; 0.1% and 0.5%): substantially complete inhibition of prostaglandins in the aqueous humor | Prostaglandin in anterior chamber aqueous humor ([1]; 0.1%): < 0.4 ng/mL | Protein in anterior chamber aqueous humor ([1]; 0.1%): 48.7 ± 3.8 mg/Mml | White Blood Cell count in anterior chamber aqueous humor ([1]; 0.1%): 5593 ± 3436 Cells/mm^3 | Prostaglandin in anterior chamber aqueous humor ([1]; 0.5%): < 0.4 ng/mL | Protein in anterior chamber aqueous humor ([1]; 0.5%): 28.4 ± 1.6 mg/Mml | White Blood Cell count in anterior chamber aqueous humor ([1]; 0.5%): 1980 ± 654 Cells/mm^3 | Anterior chamber opacity, degree of inhibition relative to physiological saline group ([2]; 0.1%): -47.4% | Balbar conjunctival injection, degree of inhibition relative to physiological saline group ([2]; 0.1%): 27.0% | Corneal opacity, degree of inhibition relative to physiological saline group ([2]; 0.1%): 57.1% | Discharge, degree of inhibition relative to physiological saline group ([2]; 0.1%): 100% | External + Internal Grand Total Score, degree of inhibition relative to physiological saline group ([2]; 0.1%): 35.7% | External Segment Total Score, degree of inhibition relative to physiological saline group ([2]; 0.1%): 32.7% | Internal Segment Total Score, degree of inhibition relative to physiological saline group ([2]; 0.1%): 40.7% | Iridic injection, degree of inhibition relative to physiological saline group ([2]; 0.1%): 61.6% | Morphological change of iris, degree of inhibition relative to physiological saline group ([2]; 0.1%): 44.2% | Palpebral conjunctival edema, degree of inhibition relative to physiological saline group ([2]; 0.1%): 45.0% | Palpebral conjunctival injection, degree of inhibition relative to physiological saline group ([2]; 0.1%): 29.8% | Anterior chamber opacity score (Internal Segment) ([2]; 0.1%): 2.8 ± 0.8 | Balbar conjunctival injection score (External Segment) ([2]; 0.1%): 8.1 ± 0.4 | Corneal opacity score (External Segment) ([2]; 0.1%): 0.6 ± 0.2 | Discharge score (External Segment) ([2]; 0.1%): 0 | External + Internal Grand Total Score ([2]; 0.1%): 21.8 ± 2.1 | External Segment Total Score ([2]; 0.1%): 13.1 ± 1.1 | Internal Segment Total Score ([2]; 0.1%): 8.0 ± 1.2 | Iridic injection score (Internal Segment) ([2]; 0.1%): 2.8 ± 0.1 | Morphological change of iris score (Internal Segment) ([2]; 0.1%): 2.4 ± 0.4 | Palpebral conjunctival edema score (External Segment) ([2]; 0.1%): 1.1 ± 0.4 | Palpebral conjunctival injection score (External Segment) ([2]; 0.1%): 4.0 ± 0.3 | Anterior chamber opacity, degree of inhibition relative to physiological saline group ([2]; 0.5%): -47.4% | Balbar conjunctival injection, degree of inhibition relative to physiological saline group ([2]; 0.5%): 27.0% | Corneal opacity, degree of inhibition relative to physiological saline group ([2]; 0.5%): 57.1% | Discharge, degree of inhibition relative to physiological saline group ([2]; 0.5%): 100% | External + Internal Grand Total Score, degree of inhibition relative to physiological saline group ([2]; 0.5%): 34.2% | External Segment Total Score, degree of inhibition relative to physiological saline group ([2]; 0.5%): 31.4% | Internal Segment Total Score, degree of inhibition relative to physiological saline group ([2]; 0.5%): 33.3% | Iridic injection, degree of inhibition relative to physiological saline group ([2]; 0.5%): 54.8% | Morphological change of iris, degree of inhibition relative to physiological saline group ([2]; 0.5%): 32.6% | Palpebral conjunctival edema, degree of inhibition relative to physiological saline group ([2]; 0.5%): 55.0% | Palpebral conjunctival injection, degree of inhibition relative to physiological saline group ([2]; 0.5%): 60.5% | Anterior chamber opacity score (Internal Segment) ([2]; 0.5%): 2.8 ± 0.5 | Balbar conjunctival injection score (External Segment) ([2]; 0.5%): 8.1 ± 0.3 | Corneal opacity score (External Segment) ([2]; 0.5%): 0.6 ± 0.2 | Discharge score (External Segment) ([2]; 0.5%): 0 | External + Internal Grand Total Score ([2]; 0.5%): 22.3 ± 1.1 | External Segment Total Score ([2]; 0.5%): 13.3 ± 0.6 | Internal Segment Total Score ([2]; 0.5%): 9.0 ± 0.7 | Iridic injection score (Internal Segment) ([2]; 0.5%): 3.3 ± 0.3 | Morphological change of iris score (Internal Segment) ([2]; 0.5%): 2.9 ± 0.3 | Palpebral conjunctival edema score (External Segment) ([2]; 0.5%): 0.9 ± 0.2 | Palpebral conjunctival injection score (External Segment) ([2]; 0.5%): 3.7 ± 0.1 | Inhibitory effect on inflammatory symptoms induced by intravenous antigen ([2]; both concentrations (0.1% and 0.5%), gross observation): substantially complete inhibition at both concentrations | Prostaglandin in anterior chamber aqueous humor ([3]; 0.1%): < 0.4 ng/mL | White Blood Cell count in anterior chamber aqueous humor ([3]; 0.1%): 1489 ± 499 Cells/mm^3 | Prostaglandin in anterior chamber aqueous humor ([3]; 0.5%): < 0.4 ng/mL | White Blood Cell count in anterior chamber aqueous humor ([3]; 0.5%): 1673 ± 277 Cells/mm^3 | Degree of inhibition (carrageenin edema) ([4]; 1.0%): 16.9% | Weight of Edema ([4]; 1.0%): 43.93 ± 4.138 mg | Degree of inhibition (carrageenin edema) ([4]; 2.5%): 31.3% | Weight of Edema ([4]; 2.5%): 36.323 ± 3.308 mg | Inhibitory activity on miosis after paracentesis ([5]; Compound [I] 0.0001-0.1%, indomethacin as high as 0.5%): dose-related inhibitory activity on miosis after paracentesis | Inhibition (miosis) ([5]; content 0.0001%): 9.2 ± 8.33% | Miosis ([5]; content 0.0001%): 21.5 ± 1.97% | Inhibition (miosis) ([5]; content 0.001%): 19.7 ± 6.08% | Miosis ([5]; content 0.001%): 19.0 ± 1.44% | Inhibition (miosis) ([5]; content 0.01%): 35.2 ± 6.75% | Miosis ([5]; content 0.01%): 15.4 ± 1.60% | Inhibition (miosis) ([5]; content 0.1%): 24.9 ± 16.4% | Miosis ([5]; content 0.1%): 17.4 ± 3.80% | Decomposition of Compound [I] [6]: the decomposition of Compound [I] was not observed either | Osmolarity of ophthalmic solution ([7]; 0.1% ophthalmic solution): 325 mOsm/kg·H2 O | pH value of ophthalmic solutions ([7]; 0.5% and 0.1% ophthalmic solutions): 8.11 | Osmolarity of ophthalmic solution ([7]; 0.5% ophthalmic solution): 310 mOsm/kg·H2 O | Osmotic pressure ([7]; Experimental Example 3 solutions 0.1-0.0001%, pH 8.0): 310 mOsm/Kg.H2 O
